Source: US20170037008A1, “PHENYL BENZYL ETHER DERIVATIVE AND PREPARATION METHOD AND APPLICATION THEREOF” (BEIJING ZHIBO BIO-MEDICAL TECHNOLOGY CO., LTD, priority 2013, published 2017)

Tests used:
[1] = Biological distribution in bodies of normal mice; format: in vivo, mice (ICR); conditions: caudal vein injection
From the text: Through in-vivo distribution experiments, pharmacokinetic features, especially initial bran intake and brain removal situations of ^18F or ^125I labeled compounds in the bodies of mice are studied. […] Data are expressed in radioactive percentage dosage per organ (% ID/organ) and radioactive percentage dosage per gram of organ (% ID/g).

[2] = logD of labeled ligands; format: physicochemical
[3] = molecular target: T1, Aβ1-42 aggregates (Homo sapiens, UniProt P05067); assay: In-vitro competitive binding experiments (Ki determination) with Aβ1-42 aggregates; conditions: for affinity with the Aβ1-42 aggregates compared with IMPY and PIB: competitive binding experiments
T1 construct: Preparing receptor Aβ1-42 proteins according to the existing method
Description: Binding reaction occurs between Aβ1-42 aggregate proteins with certain concentration and radioactive ligands [^125I] […] 4, the compounds are separated after balancing, and the inhibition constant (Ki) is calculated by determining radioactivity.
(1) Preparing 4 l of PBS (0.2M) buffer solution with pH=7.4;
(2) Preparing radioligand [^125]
(3) Preparing the compounds to be determined into 10^−3 to 10^−9 mol/L continuously diluted ethanol solution;
(4) Preparing receptor Aβ1-42 proteins according to the existing method and diluting the proteins into 30 nM water solution;
(5) Soaking a glass fiber filter membrane in PBS solution containing 0.1% (volume fraction) polyethyleneimine for 0.5 h;
(6) Respectively adding 100 μl of solution of compounds with different concentration and to be determined, 100 μl of [^125I]
(7) Oscillating and incubating for 2 h in 37° C. constant-temperature water bath;
(8) Collecting reaction liquid by using a multi-head cell collector, and washing the reaction liquid for three times by using PBS, 3 ml per time;
(9) Measuring and counting by using a γ counter; and […]

T1 sequence (P05067 672-713 limits assumed): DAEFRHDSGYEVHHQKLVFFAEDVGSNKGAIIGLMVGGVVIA

Row | Blood ([1]; 2 min) [% ID/g] | Brain ([1]; 2 min) [% ID/g] | Blood ([1]; 10 min) [% ID/g] | Brain ([1]; 10 min) [% ID/g] | Blood ([1]; 30 min) [% ID/g] | Brain ([1]; 30 min) [% ID/g] | Blood ([1]; 60 min) [% ID/g] | Brain ([1]; 60 min) [% ID/g] | logD [2] | Ki [3] [nM] | SMILES | affinity with the Aβ1-42 aggregates compared with IMPY and PIB [3] | further results
1 | 3.95 ± 0.34 | 9.71 ± 1.31 | 4.14 ± 0.91 | 2.52 ± 0.20 | 3.40 ± 0.25 | 1.39 ± 0.10 | 2.36 ± 0.66 | 1.07 ± 0.10 | [^18F] 53b (logD = 3.04 ± 0.04) |  | COc1ccc(COc2ccc(OCCOCCOCC[18F])cc2)cc1 [[^18F] 53b] |  | Bone ([1]; 2 min): 1.36 ± 0.35 % ID/organ; Bone ([1]; 10 min): 1.22 ± 0.42 % ID/organ; Bone ([1]; 30 min): 1.39 ± 0.54 % ID/organ; Bone ([1]; 60 min): 1.52 ± 0.27 % ID/organ
2 | 4.26 ± 0.41 | 9.95 ± 2.36 | 4.61 ± 0.95 | 2.77 ± 0.19 | 3.76 ± 0.19 | 1.44 ± 0.18 | 3.05 ± 1.09 | 1.30 ± 0.16 | [^18F] 53a (logD = 3.65 ± 0.04) |  | COc1ccc(COc2ccc(OCC[18F])cc2)cc1 [[^18F] 53a] |  | Bone ([1]; 2 min): 2.37 ± 0.69 % ID/organ; Bone ([1]; 10 min): 2.76 ± 0.47 % ID/organ; Bone ([1]; 30 min): 4.02 ± 0.78 % ID/organ; Bone ([1]; 60 min): 5.89 ± 0.49 % ID/organ
3 | 4.96 ± 0.35 | 5.27 ± 0.98 | 3.88 ± 0.79 | 2.28 ± 0.27 | 3.89 ± 0.53 | 0.81 ± 0.06 | 3.01 ± 1.07 | 0.37 ± 0.06 | [^125I]35a (logD = 2.50 ± 0.23) |  | FCCOc1ccc(COc2ccc([125I])cc2)cc1 [[^125I]35a] |  | Thyroid ([1]; 2 min): 0.13 ± 0.02 % ID/organ; Thyroid ([1]; 10 min): 0.13 ± 0.01 % ID/organ; Thyroid ([1]; 30 min): 0.19 ± 0.04 % ID/organ; Thyroid ([1]; 60 min): 0.34 ± 0.10 % ID/organ
4 | 5.13 ± 0.62 | 4.29 ± 1.06 | 4.26 ± 0.38 | 2.11 ± 0.38 | 3.31 ± 0.79 | 0.73 ± 0.17 | 2.60 ± 1.33 | 0.32 ± 0.09 | [^125I]24 (logD = 4.16 ± 0.29) |  | COc1ccc(COc2ccc([125I])cc2)cc1 [[^125I]24] |  | Thyroid ([1]; 10 min): 0.07 ± 0.03 % ID/organ; Thyroid ([1]; 30 min): 0.17 ± 0.03 % ID/organ; Thyroid ([1]; 60 min): 0.19 ± 0.05 % ID/organ
5 |  |  |  |  |  |  |  |  |  | 24.1 ± 8.8 | FCCOc1ccc(OCc2ccc(I)cc2)cc1 [Compound 31a, 1-(2-fluoroethoxy)-4-((4-iodobenzyl)oxy) benzene] | higher than that of the known compounds IMPY and PIB | 
6 |  |  |  |  |  |  |  |  |  | 1060 ± 104 | CN(C)c1cccc(OCc2ccc(I)cc2)c1 [Compound 23, 3-(4-iodobenzyloxy)-N,N-dimethylaniline] |  | 

The remaining lines, values behind:

Row | SMILES | Blood ([1]; 2 min) [% ID/g] | Brain ([1]; 2 min) [% ID/g] | Blood ([1]; 10 min) [% ID/g] | Brain ([1]; 10 min) [% ID/g] | Blood ([1]; 30 min) [% ID/g] | Brain ([1]; 30 min) [% ID/g] | Blood ([1]; 60 min) [% ID/g] | Brain ([1]; 60 min) [% ID/g] | logD [2] | Ki [3] [nM] | affinity with the Aβ1-42 aggregates compared with IMPY and PIB [3] | further results
7 | CN(C)c1ccc(OCc2ccc(I)cc2)cc1 [Compound 22, 4-(4-iodobenzyloxy)-N,N-dimethylaniline] |  |  |  |  |  |  |  |  |  | 20.9 ± 1.8 | higher than that of the known compounds IMPY and PIB | 
8 | Ic1ccc(COc2ccc(I)cc2)cc1 [Compound 13, 1-iodo-4-(4-iodobenzyloxy) benzene] |  |  |  |  |  |  |  |  |  | 25.9 ± 2.4 | higher than that of the known compounds IMPY and PIB | 
9 | COc1ccc(OCc2ccc(I)cc2)cc1 [Compound 4, 1-iodo-4-((4-methoxyphenoxy)methyl) benzene] |  |  |  |  |  |  |  |  |  | 28.7 ± 8 | higher than that of the known compounds IMPY and PIB | 
10 | COc1cccc(OCc2ccc(I)cc2)c1 [Compound 5, 1-(4-iodobenzyloxy)-3-methoxybenzene] |  |  |  |  |  |  |  |  |  | 154 ± 5.6 |  | 
11 | Brc1ccc(OCc2ccc(I)cc2)cc1 [Compound 12, 1-bromo-4-(4-iodobenzyloxy) benzene] |  |  |  |  |  |  |  |  |  | 14.1 ± 1.2 | higher than that of the known compounds IMPY and PIB | 
12 | Ic1ccc(COc2ccccc2)cc1 [Compound 14, 1-iodo-4-(phenoxymethyl) benzene] |  |  |  |  |  |  |  |  |  | 93.9 ± 6.1 |  | 
